These results are taken from patent US7588913B2, “Process for the preparation of cephradine” (DSM IP Assets B.V., priority 2003, dated 2009).

Structures are written as SMILES. Read-outs that look alike come from different tables or passages of the source.

Series [1] can be described thus: Coloration of cephradine hydrate: absorbance at 450 nm. The series is classed as physicochemical. The note with it: before stress stability test, crystallisation pH 4.80. The procedure:
The coloration of cephradine hydrate was determined by the absorbance at 450 nm. The absorbance and stress stability of the cephradine hydrate prepared as described above were determined. • 1. Absorbance 1 g of cephradine hydrate was dissolved in 10 ml 10% aqueous sodium carbonate solution. The absorbance was determined at 450 nm (=A450) on a Perkin Elmer 550 S spectrophotometer, with 10% aqueous sodium carbonate solution as a reference solution at room temperature. • 2. Stress Stability Test 1.

The nature of series [2]: Stress stability test 2 (3 hrs at 100° C., A450). Format: physicochemical. The note with it: for A450 after stress stability test (3 h, 100° C.): crystallisation pH 4.80, hydrate. The procedure:
(§1) The coloration of cephradine hydrate was determined by the absorbance at 450 nm. The absorbance and stress stability of the cephradine hydrate prepared as described above were determined. • 1. Absorbance
(§2) 1 g of cephradine hydrate was dissolved in 10 ml 10% aqueous sodium carbonate solution. The absorbance was determined at 450 nm (=A450) on a Perkin Elmer 550 S spectrophotometer, with 10% aqueous sodium carbonate solution as a reference solution at room temperature. • 2. Stress Stability Test 1.
Cephradine hydrate prepared enzymatically according to Example III and crystallised at different temperatures as indicated in Table 3 was maintained during 3 hrs at 100° C. The A450 of the cephradine crystals thus treated was determined as described above.

Series [3] is classed as physicochemical. The procedure:
as §1, §2
Cephradine hydrate prepared enzymatically according to Example III and chemically according to Reference Experiment B) was kept at 40° C. at a relative humidity of 75%. After 0, 2, 4, 6 8, 10 and 12 weeks the absorbance at 450 nm was determined as described above.

Take `CC1=C(C(=O)O)N2C(=O)[C@@H](NC(=O)[C@H](N)C3=CCC=CC3)[C@H]2SC1` [IV, cephradine hydrate]: the “A450 at t = 0” value in series [1] came out at 0.051. For the same compound, the “A450 after stress stability test (3 h, 100° C.)” value (“A450 after stress stability test” below) in series [2] amounted to 0.301.

Take `CC1=C(C(=O)O)N2C(=O)[C@@H](NC(=O)[C@H](N)C3=CCC=CC3)[C@H]2SC1` [VI, cephradine hydrate]: the “A450 at t = 0” value in series [1] was 0.021. In addition, the “A450 after stress stability test” value in series [2] came out at 0.291.

For `CC1=C(C(=O)O)N2C(=O)[C@@H](NC(=O)[C@H](N)C3=CCC=CC3)[C@H]2SC1` [V, cephradine hydrate], the “A450 at t = 0” value in series [1] is listed as 0.018. In series [2], the “Color stability of cephradine crystals versus crystallization temperature” value is “superior values” and the “A450 after stress stability test” value turned out to be 0.056.

Consider `CC1=C(C(=O)O)N2C(=O)[C@@H](NC(=O)[C@H](N)C3=CCC=CC3)[C@H]2SC1` [VII, cephradine hydrate], for which the “A450 at t = 0” value in series [1] amounted to 0.017. In series [2], the “A450 after stress stability test” value worked out at 0.330.

Consider `CC1=C(C(=O)O)N2C(=O)[C@@H](NC(=O)[C@H](N)C3=CCC=CC3)[C@H]2SC1` [Cephradine prepared chemically, cephradine hydrate], for which the “A450 (color stability)” value was 0.028 in series [3] (0 weeks); 0.065 in series [3] (2 weeks); 0.077 in series [3] (4 weeks); 0.161 in series [3] (6 weeks); 0.142 in series [3] (8 weeks); 0.211 in series [3] (10 weeks).
